Source: the NIST ThermoML archive (doi:10.1021/je060271a)
Numbers after ± are expanded uncertainties.

Settings: 303.15 K, Liquid, Vibrating tube method

## CCCCC(=O)OCC(COC(=O)CCCC)(COC(=O)CCCC)COC(=O)CCCC [pentaerythritol tetrapentanoate]
29848 kPa
  mass density: 1028.9 ± 1.2 kg/m3
29879 kPa
  mass density: 1028.8 ± 1.2 kg/m3
29916 kPa
  mass density: 1029 ± 1.2 kg/m3
29948 kPa
  mass density: 1028.9 ± 1.2 kg/m3
29979 kPa
  mass density: 1029 ± 1.2 kg/m3
30016 kPa
  mass density: 1028.9 ± 1.2 kg/m3
30047 kPa
  mass density: 1028.9 ± 1.2 kg/m3
30079 kPa
  mass density: 1029 ± 1.2 kg/m3
30118 kPa
  mass density: 1029 ± 1.2 kg/m3
30150 kPa
  mass density: 1029.1 ± 1.2 kg/m3
30185 kPa
  mass density: 1029 ± 1.2 kg/m3
30217 kPa
  mass density: 1029 ± 1.2 kg/m3
30249 kPa
  mass density: 1029.1 ± 1.2 kg/m3
30286 kPa
  mass density: 1029 ± 1.2 kg/m3
30319 kPa
  mass density: 1029.1 ± 1.2 kg/m3
30352 kPa
  mass density: 1029.1 ± 1.2 kg/m3
30390 kPa
  mass density: 1029 ± 1.2 kg/m3
30423 kPa
  mass density: 1029.2 ± 1.2 kg/m3
30461 kPa
  mass density: 1029.1 ± 1.2 kg/m3
30493 kPa
  mass density: 1029.2 ± 1.2 kg/m3
30526 kPa
  mass density: 1029.2 ± 1.2 kg/m3
30566 kPa
  mass density: 1029.2 ± 1.2 kg/m3
30598 kPa
  mass density: 1029.2 ± 1.2 kg/m3
30631 kPa
  mass density: 1029.2 ± 1.2 kg/m3
30665 kPa
  mass density: 1029.4 ± 1.2 kg/m3
30705 kPa
  mass density: 1029.3 ± 1.2 kg/m3
30738 kPa
  mass density: 1029.3 ± 1.2 kg/m3
30777 kPa
  mass density: 1029.3 ± 1.2 kg/m3
30810 kPa
  mass density: 1029.3 ± 1.2 kg/m3
30844 kPa
  mass density: 1029.4 ± 1.2 kg/m3
30884 kPa
  mass density: 1029.4 ± 1.2 kg/m3
30917 kPa
  mass density: 1029.4 ± 1.2 kg/m3
30951 kPa
  mass density: 1029.4 ± 1.2 kg/m3
30991 kPa
  mass density: 1029.5 ± 1.2 kg/m3
31025 kPa
  mass density: 1029.5 ± 1.2 kg/m3
31060 kPa
  mass density: 1029.6 ± 1.2 kg/m3
31101 kPa
  mass density: 1029.5 ± 1.2 kg/m3
31135 kPa
  mass density: 1029.5 ± 1.2 kg/m3
31170 kPa
  mass density: 1029.5 ± 1.2 kg/m3
31204 kPa
  mass density: 1029.6 ± 1.2 kg/m3
31246 kPa
  mass density: 1029.7 ± 1.2 kg/m3
31280 kPa
  mass density: 1029.5 ± 1.2 kg/m3
31315 kPa
  mass density: 1029.6 ± 1.2 kg/m3
31350 kPa
  mass density: 1029.6 ± 1.2 kg/m3
31392 kPa
  mass density: 1029.7 ± 1.2 kg/m3
31427 kPa
  mass density: 1029.7 ± 1.2 kg/m3
31462 kPa
  mass density: 1029.8 ± 1.2 kg/m3
31504 kPa
  mass density: 1029.8 ± 1.2 kg/m3
31540 kPa
  mass density: 1029.7 ± 1.2 kg/m3
31576 kPa
  mass density: 1029.8 ± 1.2 kg/m3
31610 kPa
  mass density: 1029.8 ± 1.2 kg/m3
31653 kPa
  mass density: 1029.9 ± 1.2 kg/m3
31688 kPa
  mass density: 1029.9 ± 1.2 kg/m3
31731 kPa
  mass density: 1029.9 ± 1.2 kg/m3
31767 kPa
  mass density: 1029.8 ± 1.2 kg/m3
31803 kPa
  mass density: 1029.9 ± 1.2 kg/m3
31846 kPa
  mass density: 1030 ± 1.2 kg/m3
31882 kPa
  mass density: 1030 ± 1.2 kg/m3
31918 kPa
  mass density: 1029.9 ± 1.2 kg/m3
31954 kPa
  mass density: 1030 ± 1.2 kg/m3
31996 kPa
  mass density: 1030 ± 1.2 kg/m3
32033 kPa
  mass density: 1030 ± 1.2 kg/m3
32078 kPa
  mass density: 1030.1 ± 1.2 kg/m3
32115 kPa
  mass density: 1030.2 ± 1.2 kg/m3
32152 kPa
  mass density: 1030.1 ± 1.2 kg/m3
32188 kPa
  mass density: 1030.1 ± 1.2 kg/m3
32232 kPa
  mass density: 1030.1 ± 1.2 kg/m3
32269 kPa
  mass density: 1030.2 ± 1.2 kg/m3
32306 kPa
  mass density: 1030.2 ± 1.2 kg/m3
32351 kPa
  mass density: 1030.4 ± 1.2 kg/m3
32387 kPa
  mass density: 1030.3 ± 1.2 kg/m3
32432 kPa
  mass density: 1030.3 ± 1.2 kg/m3
32470 kPa
  mass density: 1030.3 ± 1.2 kg/m3
32507 kPa
  mass density: 1030.3 ± 1.2 kg/m3
32544 kPa
  mass density: 1030.2 ± 1.2 kg/m3
32590 kPa
  mass density: 1030.4 ± 1.2 kg/m3
32628 kPa
  mass density: 1030.3 ± 1.2 kg/m3
32667 kPa
  mass density: 1030.6 ± 1.2 kg/m3
32714 kPa
  mass density: 1030.4 ± 1.2 kg/m3
32752 kPa
  mass density: 1030.4 ± 1.2 kg/m3
